Measured values taken from patent US3960877A, “N-monosubstituted-2,3-pyridinedicarboxamides, and related compounds” (priority 1974, dated 1976).

What was measured:
Assay type in all cases: in vivo
Alfalfa [1] = test: Preemergence herbicidal activity, % control of plant growth; settings: Medicago sativa, pre-emergence, 504 h, 16 lb/acre, about 3 weeks
Summary of the method: (§1)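 Seeds sown in fresh soil; soil sprayed immediately after planting, before any growth, with ~2% w/w solution of compound in acetone and/or alcohol at 16 lb/acre. Visual rating ~3 weeks after spraying versus untreated areas, as average % control of plant growth.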

Barnyard Grass [2] = test: as above; settings: Echinochloa crus-galli, pre-emergence, 504 h; barnyard grass; 16 lb/acre; about 3 weeks
Summary of the method: as §1

Cheatgrass [3] = test: as above; settings: Bromus tectorum, pre-emergence, 504 h, 16 lb/acre, about 3 weeks
Summary of the method: as §1

Chickweed [4] = test: as above; settings: pre-emergence, 504 h, 16 lb/acre, about 3 weeks
Summary of the method: as §1

Corn [5] = test: as above; settings: Zea mays, pre-emergence, 504 h, 16 lb/acre, about 3 weeks
Summary of the method: as §1

Crabgrass [6] = test: as above; settings: Digitaria sanguinalis, pre-emergence, 504 h, 16 lb/acre, about 3 weeks
Summary of the method: as §1

Cucumber [7] = test: as above; settings: Cucumis sativus, pre-emergence, 504 h, 16 lb/acre, about 3 weeks
Summary of the method: as §1

Curled Dock [8] = test: as above; settings: pre-emergence, 504 h, 16 lb/acre, about 3 weeks
Summary of the method: as §1

Foxtail [9] = test: as above; settings: Setaria, pre-emergence, 504 h, 16 lb/acre, about 3 weeks
Summary of the method: as §1

Johnsongrass [10] = test: as above; settings: Sorghum halepense, pre-emergence, 504 h, 16 lb/acre, about 3 weeks
Summary of the method: as §1

Lambsquarters [11] = test: as above; settings: Chenopodium album, pre-emergence, 504 h, 16 lb/acre, about 3 weeks
Summary of the method: as §1

Nutgrass [12] = test: as above; settings: pre-emergence, 504 h, 16 lb/acre, about 3 weeks
Summary of the method: as §1

Pigweed [13] = test: as above; settings: Amaranthus retroflexus, pre-emergence, 504 h, 16 lb/acre, about 3 weeks
Summary of the method: as §1

Snapbeans [14] = test: as above; settings: pre-emergence, 504 h, 16 lb/acre, about 3 weeks
Summary of the method: as §1

Velvetleaf [15] = test: as above; settings: Abutilon theophrasti, pre-emergence, 504 h, 16 lb/acre, about 3 weeks
Summary of the method: as §1

Wild Oats [16] = test: as above; settings: Avena fatua, pre-emergence, 504 h, 16 lb/acre, about 3 weeks
Summary of the method: as §1

Yellow Rocket [17] = test: as above; settings: pre-emergence, 504 h, 16 lb/acre, about 3 weeks
Summary of the method: as §1

Alfalfa [18] = test: Postemergence herbicidal activity, % control of plant growth; settings: Medicago sativa, post-emergence, 264 h, 8 lb/acre, about 11 days
Summary of the method: (§2)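 Soil and emerged seedlings were sprayed about 2 weeks after sowing with the compound at 8 pounds per acre, delivered from an approx. 2% w/w acetone and/or alcohol solution. Percent control of plant growth was scored visually roughly 11 days after treatment.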

Barnyard Grass [19] = test: as above; settings: Echinochloa crus-galli, post-emergence, 264 h, 8 lb/acre, about 11 days
Summary of the method: as §2

Cheatgrass [20] = test: as above; settings: Bromus tectorum, post-emergence, 264 h, 8 lb/acre, about 11 days
Summary of the method: as §2

Chickweed [21] = test: as above; settings: post-emergence, 264 h, 8 lb/acre, about 11 days
Summary of the method: as §2

Corn [22] = test: as above; settings: Zea mays, post-emergence, 264 h, 8 lb/acre, about 11 days
Summary of the method: as §2

Crabgrass [23] = test: as above; settings: Digitaria sanguinalis, post-emergence, 264 h, 8 lb/acre, about 11 days
Summary of the method: as §2

Cucumber [24] = test: as above; settings: Cucumis sativus, post-emergence, 264 h, 8 lb/acre, about 11 days
Summary of the method: as §2

Curled Dock [25] = test: as above; settings: post-emergence, 264 h, 8 lb/acre, about 11 days
Summary of the method: as §2

Foxtail [26] = test: as above; settings: Setaria, post-emergence, 264 h, 8 lb/acre, about 11 days
Summary of the method: as §2

Johnsongrass [27] = test: as above; settings: Sorghum halepense, post-emergence, 264 h, 8 lb/acre, about 11 days
Summary of the method: as §2

Lambsquarters [28] = test: as above; settings: Chenopodium album, post-emergence, 264 h, 8 lb/acre, about 11 days
Summary of the method: as §2

Nutgrass [29] = test: as above; settings: post-emergence, 264 h, 8 lb/acre, about 11 days
Summary of the method: as §2

Pigweed [30] = test: as above; settings: Amaranthus retroflexus, post-emergence, 264 h, 8 lb/acre, about 11 days
Summary of the method: as §2

Snapbeans [31] = test: as above; settings: post-emergence, 264 h, 8 lb/acre, about 11 days
Summary of the method: as §2

Velvetleaf [32] = test: as above; settings: Abutilon theophrasti, post-emergence, 264 h, 8 lb/acre, about 11 days
Summary of the method: as §2

Wild Oats [33] = test: as above; settings: Avena fatua, post-emergence, 264 h, 8 lb/acre, about 11 days
Summary of the method: as §2

Yellow Rocket [34] = test: as above; settings: post-emergence, 264 h, 8 lb/acre, about 11 days
Summary of the method: as §2

[35] = test system: undesirable plants of both the monocotyledonous and the dicotyledonous species; test: Herbicidal activity, general
Source text: All of the 3-substituted compounds of the pyrido [3,2-d]pyrimidine-2,4(1H,3H)-dione and lumazine families made from intermediate amides produced by the method of this invention have an unexpectedly high order of herbicidal activity.
In using the compound, seeds of the types of plants set forth in Table II were sown in fresh soil. In the preemergence test the soil was sprayed with a solution of the test compound immediately after the seeds were planted, and before any noticeable growth developed. The solution was about a 2 percent by weight solution of the compound in acetone and/or alcohol. The compound was applied at the rate of 16 pounds per acre of soil surface.
Approximately 3 weeks after spray application, the herbicidal activity of the compound was determined by visual observation of the treated area in comparison with untreated control areas. These observations are reported below in Table II wherein the average activity rating is reported as the percent control of plant growth.
In the postemergence test the soil and developing plants were sprayed approximately 2 weeks after the seeds were sown. The compound was applied at the rate of 8 pounds per acre from about a 2 percent by weight solution of the test compound in acetone and/or alcohol. The postemergence herbicidal activity was measured in the same way as the preemergence activity; i.e. visual observation approximately 11 days after spraying, and expressed as the percent control of plant growth.

CC(C)n1c(=O)[nH]c2cccnc2c1=O [3-isopropyl-pyrido[3,2-d]pyrimidine-2,4(1H,3H)-dione]
pest or weed control at 17933.6 g/ha (Alfalfa [1]): 100%
pest or weed control at 17933.6 g/ha (Barnyard Grass [2]): 100%
pest or weed control at 17933.6 g/ha (Cheatgrass [3]): 100%
pest or weed control at 17933.6 g/ha (Chickweed [4]): 100%
plant injury at 17933.6 g/ha (Corn [5]): 100%
pest or weed control at 17933.6 g/ha (Crabgrass [6]): 100%
pest or weed control at 17933.6 g/ha (Cucumber [7]): 100%
pest or weed control at 17933.6 g/ha (Curled Dock [8]): 100%
pest or weed control at 17933.6 g/ha (Foxtail [9]): 100%
pest or weed control at 17933.6 g/ha (Johnsongrass [10]): 100%
pest or weed control at 17933.6 g/ha (Lambsquarters [11]): 90%
pest or weed control at 17933.6 g/ha (Nutgrass [12]): 20%
pest or weed control at 17933.6 g/ha (Pigweed [13]): 100%
pest or weed control at 17933.6 g/ha (Snapbeans [14]): 100%
pest or weed control at 17933.6 g/ha (Velvetleaf [15]): 100%
pest or weed control at 17933.6 g/ha (Wild Oats [16]): 100%
pest or weed control at 17933.6 g/ha (Yellow Rocket [17]): 100%
pest or weed control at 8966.8 g/ha (Alfalfa [18]): 90%
pest or weed control at 8966.8 g/ha (Barnyard Grass [19]): 80%
pest or weed control at 8966.8 g/ha (Cheatgrass [20]): 50%
pest or weed control at 8966.8 g/ha (Chickweed [21]): 70%
plant injury at 8966.8 g/ha (Corn [22]): 30%
pest or weed control at 8966.8 g/ha (Crabgrass [23]): 100%
pest or weed control at 8966.8 g/ha (Cucumber [24]): 100%
pest or weed control at 8966.8 g/ha (Curled Dock [25]): 100%
pest or weed control at 8966.8 g/ha (Foxtail [26]): 100%
pest or weed control at 8966.8 g/ha (Johnsongrass [27]): 90%
pest or weed control at 8966.8 g/ha (Lambsquarters [28]): 100%
pest or weed control at 8966.8 g/ha (Nutgrass [29]): 50%
pest or weed control at 8966.8 g/ha (Pigweed [30]): 100%
pest or weed control at 8966.8 g/ha (Snapbeans [31]): 90%
pest or weed control at 8966.8 g/ha (Velvetleaf [32]): 100%
pest or weed control at 8966.8 g/ha (Wild Oats [33]): 70%
pest or weed control at 8966.8 g/ha (Yellow Rocket [34]): 100%
order of herbicidal activity ([35]; in vivo): high order of activity

CCC(C)n1c(=O)[nH]c2cccnc2c1=O (stereo not shown) [3-sec-butyl-pyrido[3,2-d] pyrimidine-2,4(1H,3H)-dione]
pest or weed control at 17933.6 g/ha (Alfalfa [1]): 100%
pest or weed control at 17933.6 g/ha (Barnyard Grass [2]): 100%
pest or weed control at 17933.6 g/ha (Cheatgrass [3]): 100%
pest or weed control at 17933.6 g/ha (Chickweed [4]): 100%
plant injury at 17933.6 g/ha (Corn [5]): 100%
pest or weed control at 17933.6 g/ha (Crabgrass [6]): 100%
pest or weed control at 17933.6 g/ha (Cucumber [7]): 100%
pest or weed control at 17933.6 g/ha (Curled Dock [8]): 100%
pest or weed control at 17933.6 g/ha (Foxtail [9]): 100%
pest or weed control at 17933.6 g/ha (Johnsongrass [10]): 100%
pest or weed control at 17933.6 g/ha (Lambsquarters [11]): 100%
pest or weed control at 17933.6 g/ha (Nutgrass [12]): 100%
pest or weed control at 17933.6 g/ha (Pigweed [13]): 100%
pest or weed control at 17933.6 g/ha (Snapbeans [14]): 100%
pest or weed control at 17933.6 g/ha (Velvetleaf [15]): 100%
pest or weed control at 17933.6 g/ha (Wild Oats [16]): 100%
pest or weed control at 17933.6 g/ha (Yellow Rocket [17]): 100%
pest or weed control at 8966.8 g/ha (Alfalfa [18]): 100%
pest or weed control at 8966.8 g/ha (Barnyard Grass [19]): 100%
pest or weed control at 8966.8 g/ha (Cheatgrass [20]): 100%
pest or weed control at 8966.8 g/ha (Chickweed [21]): 100%
plant injury at 8966.8 g/ha (Corn [22]): 90%
pest or weed control at 8966.8 g/ha (Crabgrass [23]): 100%
pest or weed control at 8966.8 g/ha (Cucumber [24]): 100%
pest or weed control at 8966.8 g/ha (Curled Dock [25]): 100%
pest or weed control at 8966.8 g/ha (Foxtail [26]): 100%
pest or weed control at 8966.8 g/ha (Johnsongrass [27]): 100%
pest or weed control at 8966.8 g/ha (Lambsquarters [28]): 100%
pest or weed control at 8966.8 g/ha (Nutgrass [29]): 100%
pest or weed control at 8966.8 g/ha (Pigweed [30]): 100%
pest or weed control at 8966.8 g/ha (Snapbeans [31]): 100%
pest or weed control at 8966.8 g/ha (Velvetleaf [32]): 100%
pest or weed control at 8966.8 g/ha (Wild Oats [33]): 100%
pest or weed control at 8966.8 g/ha (Yellow Rocket [34]): 100%
effective application rate ([35]; relative to 3-isopropyl-pyrido[3,2-d]pyrimidine-2,4(1H,3H)-dione, preemergence or postemergence): substantially the same application rates, e.g., as similar or salt solutions in water, are effective
